US11248006B2, “Macrocyclic derivative of pyrazol[3,4-d]pyrimidin-3-one, pharmaceutical composition and use thereof” (SHANGHAI DE NOVO PHARMATECH CO., LTD., priority 2017, dated 2022)

Experiments:
[1] = tested on: Human osteosarcoma cell line MG63; test: Cell proliferation assay (CCK-8 cell viability); type: cell-based; settings: CCK-8, 72 hours incubation
Description: In the present disclosure, cell assays were used to assess the biological activity of the compound. Human osteosarcoma cell line MG63 (ATCC CRL-1427) was cultured in a 96-well plate of Dulbecco's Modified Eagle's medium, supplemented with 10% fetal bovine serum and 1% (v/v) L-glutamine, and the cultivation environment was 37° C. and 5% CO2. Compound concentrations ranged from 4.5 nM to 30 μM. The Wee1 inhibitor stock solution was dissolved in DMSO, added to the medium with an indicated concentration and incubated for 72 hours. Negative control cells were only treated with vehicle. In some assays, a known Wee1 inhibitor was added as a positive control. Cell viability was measured using a Cell Counting Kit-8 (CCK-8, Sigma-Aldrich) under the instruction of the product specification. The data was analyzed using Graphpad software to obtain a fitted curve of IC50 values against the compounds.

Wee1 [2] = biological target: T1, Wee1 (Homo sapiens (Human), UniProt P30291); test: Wee1 enzyme catalysis assay (ATP-Glo Max kinase luminescence detection kit); type: biochemical; settings: Wee1 enzymatic activity, 10 μM ATP, Poly (Lys, Tyr) substrate, 30° C. for 50 minutes
Description: In the present disclosure, Wee1 enzyme catalysis assay was carried out using the ATP-Glo Max kinase luminescence detection kit (Promega). Kinase activity was assessed by quantitative detection of the amount of ATP retained in the solution following the kinase reaction. The luminescent signal in the assay is proportional to the amount of ATP and inversely proportional to the kinase activity. The concentration of the compound in the assay ranged from 0.5 nM to 30 μM. The compound was dissolved in 10% DMSO, and 5 μL of the solution was added to 50 μL of the reaction, and the concentration of DMSO in the final reaction was 1%. The reaction was carried out at 30° C. for 50 minutes. 40 mM trishydroxymetyl aminomethane, pH 7.4, 10 mM MgCl2, 0.1 mg/ml BSA, 2 mM DTT, 0.1 mg/ml Poly (Lys, Tyr) substrate, 10 μM ATP and Wee1 were contained in the reaction mixture. After the enzymatic reaction, 50 μL of ATP-Glo Max kinase luminescence detection assay solution (Promega) was added and incubated for 15 minutes at room temperature. The luminescent signal was measured using a microplate reader. In some assays, a known Wee1 inhibitor was added as a positive control. Luminance data was analyzed using Graphpad software. The difference between the luminescence intensity in the absence of Wee1 and the luminescence intensity in the presence of Wee1 was defined as 100% activity (Lut−Luc). Using the luminescence intensity signal (Lu) in the presence of the compound, the % activity was calculated as follows: % Activity={(Lut−Lu)/(Lut−Luc)}×100%, wherein, Lu=luminous intensity of the compound Non-linear regression analysis was employed to plot the dose-effect curve of % activity value and the corresponding concentrations for the series of compounds. The equation is Y=B+(TB)/1+10((Log EC50−X)×Hill Slope), Y=% activity, B=minimum activity percentage, T=maximum activity percentage, X=logarithm of compound and Hill slope=slope factor or Hill coefficient. The IC50 value was determined by the concentration of a compound that is required to obtain 50% of the maximum effect.

Wee1 [3] = biological target: T1, Wee1; test: Cell activity of Wee1 by p-CDK1Y15 ELISA assay in WiDr cells; type: cell-based; settings: amount of p-CDK1Y15, human colon adenocarcinoma cell line WiDr, 24 hours incubation
Description: In the present disclosure, cellular assays were used to assess the biological activity of the compound. This assay was conducted using the human colon adenocarcinoma cell line WiDr. The activity of a specific Wee1 inhibitor was evaluated using p-CDK1Y15 ELISA assay method. The detailed assay method is described as follows:
WiDr cells were cultured in Dulbecco's Modified Eagle's medium containing 10% FBS at 37° C. and 5% CO2. Compound concentrations ranged from 0.5 nM to 30 μM. The compound was diluted, added to a 24-well plate and incubated with the cells for 24 hours. DMSO was used as a negative control. A known Wee1 inhibitor was added as a positive control in some assays. According to the instruction of the manufacturer, in the p-CDK1Y15 assay, cells were lysed and tested by a colorimetric ELISA kit to determine the amount of p-CDK1Y15. The optical density was measured using a spectrophotometer. The OD data was analyzed using Graphpad software to obtain a fitted curve of IC50 values against the compounds.

T1 sequence (P30291 whole entry): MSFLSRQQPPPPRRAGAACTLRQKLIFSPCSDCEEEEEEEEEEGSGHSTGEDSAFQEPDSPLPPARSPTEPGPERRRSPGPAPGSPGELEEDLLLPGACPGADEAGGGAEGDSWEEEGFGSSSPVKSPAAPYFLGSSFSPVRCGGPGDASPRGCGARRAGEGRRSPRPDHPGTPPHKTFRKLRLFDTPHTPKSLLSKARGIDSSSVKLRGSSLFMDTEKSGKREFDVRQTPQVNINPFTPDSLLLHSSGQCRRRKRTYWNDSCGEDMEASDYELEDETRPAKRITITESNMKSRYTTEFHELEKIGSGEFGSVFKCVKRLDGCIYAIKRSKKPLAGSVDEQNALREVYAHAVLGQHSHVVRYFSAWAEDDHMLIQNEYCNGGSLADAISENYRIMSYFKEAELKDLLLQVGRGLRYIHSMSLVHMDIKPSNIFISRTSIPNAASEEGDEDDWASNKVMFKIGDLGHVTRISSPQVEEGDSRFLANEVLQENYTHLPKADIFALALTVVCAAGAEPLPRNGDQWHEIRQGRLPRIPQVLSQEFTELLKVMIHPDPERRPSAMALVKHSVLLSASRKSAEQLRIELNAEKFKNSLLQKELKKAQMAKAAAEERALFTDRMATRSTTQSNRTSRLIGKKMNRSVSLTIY

SMILES	IC50 [1]	IC50 (Wee1 [2])	IC50 (Wee1 [3])	IC50 ([1]; Homo sapiens, MG-63, 72 h)
C=CCCCCN1C(=O)COc2ccc(-n3c4nc(SC)ncc4c(=O)n3CC=C)nc21 [Compound 3-1-1]	1.15 µM	0.0049 µM	0.336 µM	
CN1Cc2cc(Nc3ncc4c(=O)n5n(c4n3)-c3ccc4c(n3)N(CCC/C=C\C5)C(=O)CO4)ccc2C2(CC2)C1 [Compound 3-2-2]	0.261 µM	0.011 µM	0.139 µM	
CN1Cc2cc(Nc3ncc4c(=O)n5n(c4n3)-c3ccc4c(n3)N(CC/C=C\C5)C(=O)CO4)ccc2C2(CC2)C1 [Compound 3-2-3]		0.0076 µM	0.326 µM	
COc1cc(Nc2ncc3c(=O)n4n(c3n2)-c2ccc3c(n2)N(CCC/C=C\C4)C(=O)CO3)ccc1N1CCN(C)CC1 [Compound 3-3-2]		0.0033 µM	0.114 µM	0.567 µM
CN1CCN(c2ccc(Nc3ncc4c(=O)n5n(c4n3)-c3ccc4c(n3)N(CCC/C=C\C5)C(=O)CO4)cc2)CC1 [Compound 3-3-7]		0.013 µM	0.25 µM	0.571 µM
COc1cc(Nc2ncc3c(=O)n4n(c3n2)-c2ccc3c(n2)N(CCC/C=C\C4)C(=O)CO3)cc(N2CCN(C)CC2)c1 [Compound 3-3-13]			0.0688 µM	0.082 µM
CN1Cc2cc(Nc3ncc4c(=O)n5n(c4n3)-c3ccc4c(n3)N(CCC/C=C\C5)C(=O)CO4)ccc2C(C)(C)C1 [Compound 3-5-1]		0.0024 µM		0.232 µM
CC(C)(C)OC(=O)N1Cc2cc(Nc3ncc4c(=O)n5n(c4n3)-c3ccc4c(n3)N(CCC/C=C\C5)C(=O)CO4)ccc2C(C)(C)C1 [Compound 3-5-2]	0.327 µM	0.0061 µM		
CC(C)(C)OC(=O)N1CCC(n2ccc3cc(Nc4ncc5c(=O)n6n(c5n4)-c4ccc5c(n4)N(CCC/C=C\C6)C(=O)CO5)ccc32)CC1 [Compound 3-7-3]	0.222 µM	0.0095 µM	0.0806 µM	
CN1CCC(n2ccc3cc(Nc4ncc5c(=O)n6n(c5n4)-c4ccc5c(n4)N(CCC/C=C\C6)C(=O)CO5)ccc32)CC1 [Compound 3-7-5]		0.0039 µM	0.0388 µM	0.0604 µM
CN1CCC(n2ccc3cc(Nc4ncc5c(=O)n6n(c5n4)-c4ccc5c(n4)N(CCC/C=C\C6)C(=O)CO5)ccc32)C1 (centres unmarked) [Compound 3-7-6]		0.0096 µM		0.554 µM
CC(C)N1CCC(n2ccc3cc(Nc4ncc5c(=O)n6n(c5n4)-c4ccc5c(n4)N(CCC/C=C\C6)C(=O)CO5)ccc32)CC1 [Compound 3-7-7]	0.0443 µM	0.0066 µM	0.0514 µM	
CN1CCn2c(cc3cc(Nc4ncc5c(=O)n6n(c5n4)-c4ccc5c(n4)N(CCC/C=C\C6)C(=O)CO5)ccc32)C1 [Compound 3-7-8]		0.0123 µM		0.654 µM
CS(=O)(=O)CCN1CCC(n2ccc3cc(Nc4ncc5c(=O)n6n(c5n4)-c4ccc5c(n4)N(CCC/C=C\C6)C(=O)CO5)ccc32)CC1 [Compound 3-7-9]		0.0092 µM		0.193 µM
O=C1COc2ccc3nc2N1CCC/C=C\Cn1c(=O)c2cnc(Nc4ccc5c(ccn5C5CCN(CCO)CC5)c4)nc2n1-3 [Compound 3-7-10]		0.0085 µM		0.0564 µM
CN1CCC(c2c[nH]c3cc(Nc4ncc5c(=O)n6n(c5n4)-c4ccc5c(n4)N(CCC/C=C\C6)C(=O)CO5)ccc23)CC1 [Compound 3-7-13]			0.114 µM	0.15 µM
CC(C)N1CCC(n2ccc3cc(Nc4ncc5c(=O)n6n(c5n4)-c4ccc5c(n4)N(CCC/C=C\C6)C(=O)CO5)ccc32)CC1 [Compound 3-7-15]	0.211 µM	0.0079 µM		
CN1CCN(c2cc(Nc3ncc4c(=O)n5n(c4n3)-c3ccc4c(n3)N(CCC/C=C\C5)C(=O)CO4)cc3c2ccn3C)CC1 [Compound 3-7-16]			0.0314 µM	0.0991 µM
CN1Cc2cc(Nc3ncc4c(=O)n5n(c4n3)-c3ccc4c(n3)N(CCO4)C(=O)CC/C=C\C5)ccc2C2(CC2)C1 [Compound 8-1-2]		0.0044 µM		0.323 µM
C=CCn1c(=O)c2cnc(SC)nc2n1-c1ccc2c(n1)N(CCCC#CCOC1CCCCO1)C(=O)CO2 (centres unmarked) [Compound 10-1-1]	0.49 µM	0.0099 µM		
